From US5972933A, “Method of treating microbial infections” (Ed. Geistlich Sohne AG Fur Chemische Industrie, priority 1998, dated 1999)
Values after ≈ are worked out from the molar mass of the structure shown. Like-named read-outs stand apart in the source and are kept apart here.

How the values were obtained:
E. faecium = assay: Two percent taurolidine solution tested against bacteria, E. faecium (Example 5); format: cell-based; conditions: Enterococcus faecium, 48 h, 5×10^4 CFU/well, one line per sample (strain)
Experimental: Two percent taurolidine solution was tested against various bacteria at 5×10^4 CFU/well, according to Manual of Clinical Microbiology, 6th edition, P. R. Murray et al., pp. 1334-1335.

[1] = test system: Methicillin-Resistant Staphylococcus aureus (MRSA); assay: Taurolidine MIC by broth microdilution, methicillin-resistant S. aureus (EMRSA 15); format: cell-based; conditions: compared to NCTC 6571 or previous studies with fully sensitive strains
Experimental: All test strains were clinical isolates recovered from patients attending Hammersmith Hospital, London. Strains of Staphylococcus aureus (epidemic methicillin-resistant strain 15 (EMRSA 15) and vancomycin-resistant Enterococcus faecalis were broadly unselected isolates from local culture collections. However, strain selection was conducted so as to ensure that isolates were not consecutive isolates from individual patients.
Taurolidine MICs were performed using a sample of authenticated anhydrous micronised taurolidine batch number E/40522/4 (Geistlich Pharma AG, Wolhusen, Switzerland).
An aqueous stock solution of taurolidine was prepared to contain 2 g/100 ml taurolidine in water. This preparation was solubilized and sterilized by heating to 121° C. (15 psi) for 15 minutes.
Using this stock solution, serial doubling dilution of taurolidine were prepared in Unipath (Oxoid) Nutrient Broth Number 2 using 50 μl volumes in sterile round bottom microdilution trays. To these dilutions was added an equal volume of drug-free broth containing a suspension of the test organism to give a final inoculumn density of approximately 10^3 cfu. Inocula were prepared from overnight drug-free broth cultures of each test organism in Unipath (Oxoid) Nutrient Broth Number 2.
Final test concentrations of taurolidine were as follows:
All tests were incubated at 37 C for 18 hours. […]

bacteria and fungi = conditions: known antimicrobial substances; cited from earlier work
TNF production = TNF production in human blood / antibiotic-treated cultures; format: cell-based
Source text: Taurolidine and/or Taurultam prevent over-production of cytokines in the patient by monocytes of the blood.

[2] = cited from earlier work
Enterococcus faecalis = assay: Taurolidine in vitro susceptibility, E. faecalis (Example 4); format: cell-based
Source text: The in vitro susceptibility to taurolidine of a panel of clinical isolates and reference strains of Enterococcus faecium (n=20,7 strains vancomycin resistant) and Enterococcus faecalis (n-53,5 strains vancomycin resistant) has been examined. […] In all cases, the Minimum Bacteriocidal Concentration (MBC) of taurolidine was within 2 dilutions of the corresponding value for MIC confirming a bactericidal mode of action. In vitro resistance to taurolidine was not observed.

## O=S1(=O)CCN(CN2CCS(=O)(=O)NC2)CN1 [Taurolidine]
E. faecium
  MIC: 250 µg/mL (≈ 879 µM)
[1]
  difference in level of susceptibility to taurolidine: no difference in level of susceptibility to taurolidine
Bacteria and fungi
  antimicrobial spectrum: broad-spectrum activity against aerobic and anaerobic bacteria, mycobacteria and fungi
TNF production; added to antibiotic-treated cultures
  TNF production: prevents a rise in TNF production
TNF production; antibiotic-treated cultures
  neutralization of released endotoxins: nearly complete neutralization of released endotoxins
[2]
  half-life in vivo: short half-life in vivo
Enterococcus faecalis; E. faecalis strains, read-out: MIC range
  MIC: 125 to 500 µg/mL (≈ 440 to 1760 µM)
Enterococcus faecalis; E. faecalis, VAN R strains, read-out: MBC, Avg.
  MBC: 500 µg/mL (≈ 1760 µM)
Enterococcus faecalis; E. faecalis, VAN R strains, read-out: MBC, Max.
  MBC: 750 µg/mL (≈ 2640 µM)
Enterococcus faecalis; E. faecalis, VAN R strains, read-out: MBC, Mean
  MBC: 500 µg/mL (≈ 1760 µM)
Enterococcus faecalis; E. faecalis, VAN R strains, read-out: MBC, Median
  MBC: 500 µg/mL (≈ 1760 µM)
Enterococcus faecalis; E. faecalis, VAN R strains, read-out: MBC, Min.
  MBC: 500 µg/mL (≈ 1760 µM)
Enterococcus faecalis; E. faecalis, VAN R strains, read-out: MBC, Mode
  MBC: 500 µg/mL (≈ 1760 µM)
Enterococcus faecalis; E. faecalis, VAN R strains, read-out: MIC, Avg.
  MIC: 213 µg/mL (≈ 749 µM)
Enterococcus faecalis; E. faecalis, VAN R strains, read-out: MIC, Max.
  MIC: 375 µg/mL (≈ 1320 µM)
Enterococcus faecalis; E. faecalis, VAN R strains, read-out: MIC, Mean
  MIC: 213 µg/mL (≈ 749 µM)
Enterococcus faecalis; E. faecalis, VAN R strains, read-out: MIC, Median
  MIC: 250 µg/mL (≈ 879 µM)
Enterococcus faecalis; E. faecalis, VAN R strains, read-out: MIC, Min.
  MIC: 125 µg/mL (≈ 440 µM)
Enterococcus faecalis; E. faecalis, VAN R strains, read-out: MIC, Mode
  MIC: 250 µg/mL (≈ 879 µM)
Enterococcus faecalis; E. faecalis, VAN S strains, read-out: MBC, Avg.
  MBC: 566 µg/mL (≈ 1990 µM)
Enterococcus faecalis; E. faecalis, VAN S strains, read-out: MBC, Max.
  MBC: 750 µg/mL (≈ 2640 µM)
Enterococcus faecalis; E. faecalis, VAN S strains, read-out: MBC, Mean
  MBC: 566 µg/mL (≈ 1990 µM)
Enterococcus faecalis; E. faecalis, VAN S strains, read-out: MBC, Median
  MBC: 500 µg/mL (≈ 1760 µM)
Enterococcus faecalis; E. faecalis, VAN S strains, read-out: MBC, Min.
  MBC: 375 µg/mL (≈ 1320 µM)
Enterococcus faecalis; E. faecalis, VAN S strains, read-out: MBC, Mode
  MBC: 500 µg/mL (≈ 1760 µM)
Enterococcus faecalis; E. faecalis, VAN S strains, read-out: MIC, Avg.
  MIC: 289 µg/mL (≈ 1020 µM)
Enterococcus faecalis; E. faecalis, VAN S strains, read-out: MIC, Max.
  MIC: 500 µg/mL (≈ 1760 µM)
Enterococcus faecalis; E. faecalis, VAN S strains, read-out: MIC, Mean
  MIC: 289 µg/mL (≈ 1020 µM)
Enterococcus faecalis; E. faecalis, VAN S strains, read-out: MIC, Median
  MIC: 250 µg/mL (≈ 879 µM)
Enterococcus faecalis; E. faecalis, VAN S strains, read-out: MIC, Min.
  MIC: 190 µg/mL (≈ 668 µM)
Enterococcus faecalis; E. faecalis, VAN S strains, read-out: MIC, Mode
  MIC: 250 µg/mL (≈ 879 µM)
Enterococcus faecalis; E. faecalis, VAN S, Germany, read-out: MBC, (VAN S) model
  MBC: 750 µg/mL (≈ 2640 µM)
Enterococcus faecalis; E. faecalis, VAN S, Germany, read-out: MIC, (VAN S) model
  MIC: 375 µg/mL (≈ 1320 µM)
Enterococcus faecalis; E. faecalis, VAN S, Switzerland, read-out: MBC, (VAN S) model
  MBC: 500 µg/mL (≈ 1760 µM)
Enterococcus faecalis; E. faecalis, VAN S, Switzerland, read-out: MIC, (VAN S) model
  MIC: 375 µg/mL (≈ 1320 µM)
Enterococcus faecalis; E. faecalis, VAN S, UK, read-out: MBC, (VAN S) model
  MBC: 500 µg/mL (≈ 1760 µM)
Enterococcus faecalis; E. faecalis, VAN S, UK, read-out: MIC, (VAN S) model
  MIC: 250 µg/mL (≈ 879 µM)
Enterococcus faecalis; E. faecalis, all strains, read-out: MBC, Avg.
  MBC: 606 µg/mL (≈ 2130 µM)
Enterococcus faecalis; E. faecalis, all strains, read-out: MBC, Max.
  MBC: 750 µg/mL (≈ 2640 µM)
Enterococcus faecalis; E. faecalis, all strains, read-out: MBC, Mean
  MBC: 606 µg/mL (≈ 2130 µM)
Enterococcus faecalis; E. faecalis, all strains, read-out: MBC, Median
  MBC: 500 µg/mL (≈ 1760 µM)
Enterococcus faecalis; E. faecalis, all strains, read-out: MBC, Min.
  MBC: 375 µg/mL (≈ 1320 µM)
Enterococcus faecalis; E. faecalis, all strains, read-out: MBC, Mode
  MBC: 500 µg/mL (≈ 1760 µM)
Enterococcus faecalis; E. faecalis, all strains, read-out: MIC, Avg.
  MIC: 310 µg/mL (≈ 1090 µM)
Enterococcus faecalis; E. faecalis, all strains, read-out: MIC, Max.
  MIC: 500 µg/mL (≈ 1760 µM)
Enterococcus faecalis; E. faecalis, all strains, read-out: MIC, Mean
  MIC: 310 µg/mL (≈ 1090 µM)
Enterococcus faecalis; E. faecalis, all strains, read-out: MIC, Median
  MIC: 375 µg/mL (≈ 1320 µM)
Enterococcus faecalis; E. faecalis, all strains, read-out: MIC, Min.
  MIC: 125 µg/mL (≈ 440 µM)
Enterococcus faecalis; E. faecalis, all strains, read-out: MIC, Mode
  MIC: 375 µg/mL (≈ 1320 µM)
